According to PMC12670396, “Crizotinib- or Ceritinib-Conjugated Platinum(IV) Prodrugs As Potent Multiaction Agents Inducing Antiproliferative Effects in 2D and 3D Cancer Cell Models” (Journal of Medicinal Chemistry, 2025):

Key:
NCI-H2228 = test: MTT cytotoxic/antiproliferative activity, 72 h; format: cell-based, human; conditions: for IC50: NCI-H2228, MTT, 72 h
[1] = system: panel of six cancer cell lines; test: MTT, panel of six cancer cell lines (average, ranges); format: cell-based, human; conditions: average over six cancer cell lines; read-out: av cancer (average IC50 in cancer cells)
Description: (§1) A panel of six cancer cell lines was used to evaluate the cytotoxic potential of the investigated compounds.
(§2) Cytotoxicity in hepatocyte-like cells (HLC). STEMdiff Hepatocyte Kit was used to generate HLC from human pluripotent stem cells. Cytotoxicity of several of the tested compounds in HLC was evaluated using the sulphorhodamine B assay.

A549 = test: MTT cytotoxic/antiproliferative activity, 72 h; format: cell-based, human; conditions: for IC50: A549, MTT, 72 h
NCI-H2228 spheroids = test: Cytotoxicity in 3D spheroids, CellTiter-Glo 3D; format: cell-based, human; conditions: NCI-H2228 3D spheroids, 96 h
Description: (§3) In the 3D structure, the gradients of gases, nutrients, and therapeutics play a role in the final cytotoxicity of a compound.
(§4) A549 and NCI-H2228 cells were seeded in ultralow attachment, U-shape plates (Corning) at a density of 800 cells/well in the tumorsphere medium consisting of DMEM/F12 medium (Sigma), fibroblast growth factor (20 ng/mL; Sigma), epidermal growth factor 2 (10 ng mL^–1; Sigma), B27 supplement (1×; Gibco), bovine serum albumin, bovine serum albumin (BSA) (1.5 mg mL^–1; Sigma). […] CellTiter-Glo 3D viability assay was used for the experiment evaluation following the manufacturer’s instructions. The bioluminescence signal, proportional to the number of living cells, was measured using the luminescence reader SPARK, and IC50 values were calculated.

A549 spheroids = test: Cytotoxicity in 3D spheroids, CellTiter-Glo 3D; format: cell-based, human; conditions: A549 3D spheroids, 96 h
Description: as §3, §4

HCT116 = test: MTT cytotoxic/antiproliferative activity, 72 h; format: cell-based, human; conditions: for IC50: HCT116, MTT, 72 h
MMC2 = test: MTT cytotoxicity in NER-deficient cells, 72 h; format: cell-based, Chinese hamster; conditions: for Index F: IC50(CHOK1)/IC50(MMC2); for IC50: MMC2 (NER deficient), MTT, 72 h
Source text: The cytotoxicity assay was also employed to determine whether DNA damage might be involved in the mechanism of action of the tested compounds. The Chinese hamster ovary MMC2 cell line harbors the ERCC3/XPB mutation, which renders it deficient in nucleotide excision repair (NER), whereas the parent line CHOK1 is proficient in this repair process. Thus, the MMC2 line is often more sensitive to agents causing DNA damage, especially NER-reparable DNA damage, than CHOK1. […] Phosphorylation of H2AX is a commonly used marker of DNA damage. […]

A549 cells = test: Scratch test (cell migration); format: cell-based, human; conditions: A549, IC50 concentrations, 48 h
Description: First, we employed the scratch test. The ability to slow the cell closing the open area was observable for all tested compounds to a similar extent (Figure S38). Whereas the open area was almost completely closed after 48 h in nontreated cells, it remained almost fully clear of cells in the treated samples.
A549 cells were seeded in 24-well plates with inserts (Ibidi) at a density of 2 × 10^4 cells/chamber and incubated overnight. The inserts were then withdrawn, and fresh medium containing the investigated compounds was added. The image of the cell-free region was recorded at the time of compound addition and then after 48 h. The cell-free area was evaluated with Fiji software.

MDA-MB-231 = test: MTT cytotoxic/antiproliferative activity, 72 h; format: cell-based, human; conditions: for IC50: MDA-MB-231, MTT, 72 h
MCF10A = test: MTT cytotoxicity in noncancerous cells, 72 h; format: cell-based, human
Description: (§5) Growth inhibition activity in cancer cell lines was compared with the activity to inhibit the proliferation of normal (noncancerous) cells, namely MRC-5, IMR-90, hTERT-HPNE, and MCF10A cells. Selectivity indexes (SI) were calculated as (IC50 in noncancerous cells)/(average IC50 in cancer cells). […] We further assessed the toxicity of several of the compounds in hepatocyte-like cells (HLC) generated from human pluripotent cells.
as §2

hTERT-HPNE = test: MTT cytotoxicity in noncancerous cells, 72 h; format: cell-based, human
Description: as §5, §2

IMR-90 = test: MTT cytotoxicity in noncancerous cells, 72 h; format: cell-based, human; conditions: IMR-90, MTT
Description: as §5, §2

MRC-5 = test: MTT cytotoxicity in noncancerous cells, 72 h; format: cell-based, human; conditions: MRC-5, MTT
Description: as §5, §2

U87-MG = test: MTT cytotoxic/antiproliferative activity, 72 h; format: cell-based, human; conditions: for IC50: MTT, 72 h
Description: as §1, §2

CT26 cells = test: Externalization of calreticulin (flow cytometry); format: cell-based, murine; conditions: IC50 concentrations, 16 h
Description: Cells with compromised cell membranes (PI-positive) were excluded from the analysis.
CT26 cells were seeded in 6-well plates at a density of 2.5 × 10^5 cells/well and grown overnight. […] PI was added before the flow cytometry analysis with a BD FACS Verse flow cytometer. Then 3 × 10^4 cells were analyzed following the exclusion of cell aggregates. Data was analyzed with FSC Express 7 software (DeNovo software, Glendale, CA).

RD = test: MTT cytotoxic/antiproliferative activity, 72 h; format: cell-based, human; conditions: for IC50: MTT, 72 h
[2] = system: normal (noncancerous) cells MRC-5, IMR-90, hTERT-HPNE, MCF10A; test: MTT, noncancerous cell lines (average, selectivity index); format: cell-based, human; conditions: for SI, selectivity index: IC50(normal cells)/averageIC50(cancer cells); for IC50: average over MRC-5, IMR-90, hTERT-HPNE, MCF10A, read-out: av norm (average IC50 in noncancerous cells)
Description: as §5, with “pluripotent cells. […]” for “pluripotent cells.”

CHOK1 = test: MTT cytotoxicity in NER-proficient cells, 72 h; format: cell-based, Chinese hamster
Source text: The cytotoxicity assay was also employed to determine whether DNA damage might be involved in the mechanism of action of the tested compounds. The Chinese hamster ovary MMC2 cell line harbors the ERCC3/XPB mutation, which renders it deficient in nucleotide excision repair (NER), whereas the parent line CHOK1 is proficient in this repair process. Thus, the MMC2 line is often more sensitive to agents causing DNA damage, especially NER-reparable DNA damage, than CHOK1. […] Phosphorylation of H2AX is a commonly used marker of DNA damage.
as §2

CT26 cell line = test: MTT cytotoxic/antiproliferative activity, 72 h; format: cell-based, murine

Compound | IC50 (NCI-H2228) [nM] | IC50 [1] [nM] | IC50 (A549) [nM] | IC50 (NCI-H2228 spheroids) [nM] | IC50 (A549 spheroids) [nM] | IC50 (HCT116) [nM] | Index F (MMC2) | IC50 (MMC2) [nM] | antimigratory effect (closing of open area) (A549 cells) | IC50 (MDA-MB-231) [nM] | IC50 (MCF10A) [nM] | IC50 (hTERT-HPNE) [nM] | IC50 (IMR-90) [nM] | IC50 (MRC-5) [nM] | IC50 (U87-MG) [nM] | externalization of calreticulin (CT26 cells) | IC50 (RD) [nM] | IC50 [2] [nM] | IC50 (CHOK1) [nM] | IC50 (CT26 cell line) [nM] | also measured
N.N.[Cl][Pt][Cl] [cisPt, cisplatin, reference compound] | 2400 ± 700 | 8800 | 4300 ± 200 | 2100 ± 900 | 19000 ± 3000 | 8800 ± 500 | 9.23(***) | 2600 ± 600 | reduced the area filling only partially | 27000 ± 4000 | 8000 ± 900 | 12000 ± 2000 | 9600 ± 800 | 10000 ± 2000 | 3000 ± 200 | weakest | 7300 ± 200 | 9900 | 24000 ± 2000 | 6000 ± 1000 | Index F (MMC2; listed as cisplatin): approximately 9; SI, selectivity index [2]: 1.1
CC(Oc1cc(-c2cnn(C3CCN(C(=O)[O][Pt]([Cl])([Cl])[O]C(=O)CCCc4ccccc4)CC3)c2)cnc1N)c1c(Cl)ccc(F)c1Cl.N.N (centres unmarked) [compound 3, ctc-[Pt(NH3)2(crizotinib)(PhB)Cl2]] | 450 ± 90 | 500 | 480 ± 60 | 410 ± 70 | 980 ± 50 | 570 ± 90 |  | 230 ± 80 | antimigratory potential comparable to that of crizotinib and ceritinib | 500 ± 70 | 2600 ± 400 | 2200 ± 400 | 2300 ± 600 | 1500 ± 600 | 440 ± 50 | externalization of calreticulin was apparent | 540 ± 70 | 2200 | 630 ± 50 | 800 ± 200 | 
Cc1cc(Nc2ncc(Cl)c(Nc3ccccc3S(=O)(=O)C(C)C)n2)c(OC(C)C)cc1C1CCN(C(=O)[O][Pt]([Cl])([Cl])[O]C(=O)CCCc2ccccc2)CC1.N.N [compound 7, ctc-[Pt(NH3)2(ceritinib)(PhB)Cl2]] | 70 ± 10 | 220 | 230 ± 80 | 110 ± 30 | 430 ± 70 | 190 ± 60 | 4.60(**) | 100 ± 30 | antimigratory potential comparable to that of crizotinib and ceritinib | 220 ± 80 | 900 ± 200 | 2000 ± 300 | 1100 ± 300 | 1200 ± 400 | 260 ± 90 | externalization of calreticulin was apparent | 350 ± 30 | 1300 | 460 ± 80 | 270 ± 70 | IC50(MIX)/IC50(complex) (NCI-H2228; NCI-H2228, MIX3/3 or MIX7/7): 6.3; IC50(MIX)/IC50(complex) (A549; A549, MIX3/3 or MIX7/7): 3.9; IC50(MIX)/IC50(complex) (HCT116; HCT116, MIX3/3 or MIX7/7): 3.1; IC50(MIX)/IC50(complex) (MDA-MB-231; MDA-MB-231, MIX3/3 or MIX7/7): 4.1; IC50(MIX)/IC50(complex) (U87-MG; MIX3/3 or MIX7/7): 2.4; IC50(MIX)/IC50(complex) (RD; MIX3/3 or MIX7/7): 1.7; SI, selectivity index [2]: 5.9
